ChEMBL document CHEMBL4831494, “Synthesis and evaluation of FAK inhibitors with a 5-fluoro-7H-pyrrolo[2,3-d]pyrimidine scaffold as anti-hepatocellular carcinoma agents” (Eur J Med Chem, 2021)

What was measured:
cells = conditions: Homo sapiens, YY-8103, 48 h
Description: Antiproliferative activity against human YY-8103 cells assessed as inhibition of cell growth measured after 48 hrs by MTT assay

SMMC-7721 = assay: cells; conditions: Homo sapiens, SMMC-7721, 48 h
Description: Antiproliferative activity against human SMMC-7721 cells assessed as inhibition of cell growth measured after 48 hrs by MTT assay

Focal adhesion kinase 1 = Focal adhesion kinase 1 (Homo sapiens, UniProt Q05397); assay: Inhibition of FAK (unknown origin) using Poly(Glu,Tyr) and ATP as substrate measured after 40 mins by Kinase-Glo Plus luminescence assay
Chain of Focal adhesion kinase 1 (Q05397 whole entry): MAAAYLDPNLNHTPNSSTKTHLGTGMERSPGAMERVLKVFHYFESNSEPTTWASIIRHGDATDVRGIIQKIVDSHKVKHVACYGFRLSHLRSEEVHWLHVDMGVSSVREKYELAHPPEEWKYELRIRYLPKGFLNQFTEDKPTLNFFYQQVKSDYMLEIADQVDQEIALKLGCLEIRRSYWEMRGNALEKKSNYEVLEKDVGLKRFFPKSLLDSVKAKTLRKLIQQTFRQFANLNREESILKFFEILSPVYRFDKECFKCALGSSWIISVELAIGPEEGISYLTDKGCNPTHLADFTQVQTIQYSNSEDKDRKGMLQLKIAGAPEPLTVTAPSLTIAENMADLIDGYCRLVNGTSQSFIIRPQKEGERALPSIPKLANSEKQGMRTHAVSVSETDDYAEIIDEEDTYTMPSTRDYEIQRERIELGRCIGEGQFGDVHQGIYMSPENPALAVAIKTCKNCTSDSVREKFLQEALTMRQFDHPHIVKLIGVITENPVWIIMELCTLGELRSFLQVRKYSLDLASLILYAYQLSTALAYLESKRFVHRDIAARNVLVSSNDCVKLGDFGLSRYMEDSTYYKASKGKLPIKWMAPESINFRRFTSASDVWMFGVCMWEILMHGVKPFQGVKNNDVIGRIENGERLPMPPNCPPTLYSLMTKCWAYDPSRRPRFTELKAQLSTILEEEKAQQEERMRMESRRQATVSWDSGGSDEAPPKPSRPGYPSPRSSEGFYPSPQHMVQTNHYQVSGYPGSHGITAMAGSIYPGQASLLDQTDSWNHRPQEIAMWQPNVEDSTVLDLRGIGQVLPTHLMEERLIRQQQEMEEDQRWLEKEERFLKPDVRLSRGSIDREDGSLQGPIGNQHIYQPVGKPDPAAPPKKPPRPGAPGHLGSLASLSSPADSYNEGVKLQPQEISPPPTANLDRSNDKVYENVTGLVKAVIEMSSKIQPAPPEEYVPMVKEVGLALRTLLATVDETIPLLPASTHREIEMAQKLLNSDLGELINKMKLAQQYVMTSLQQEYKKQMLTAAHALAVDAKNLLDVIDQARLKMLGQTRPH

IC50 (cells) [µM] | IC50 (SMMC-7721) [µM] | IC50 (Focal adhesion kinase 1) [µM] | Compound
> 100 | > 100 | 0.026 | CN(c1ncccc1CNc1nc(Nc2ccc(N3CCOCC3)cc2)nc2[nH]cc(F)c12)S(C)(=O)=O
13.6 | 52.8 | 0.055 | CN(c1ncccc1CNc1nc(Nc2ccc3c(c2)CC(=O)N3)nc2[nH]ccc12)S(C)(=O)=O
> 100 | > 100 | 0.076 | COc1cccc(Nc2nc(NCc3cccnc3N(C)S(C)(=O)=O)c3c(F)c[nH]c3n2)c1C
4.69 | 10 | 0.022 | CNC(=O)c1ccccc1Nc1nc(Nc2ccc3c(c2)CC(=O)N3)nc2[nH]cc(F)c12
15.4 | 15.3 | 0.023 | COc1cc(N2CCOCC2)ccc1Nc1nc(NCc2cccnc2N(C)S(C)(=O)=O)c2c(F)c[nH]c2n1
13.2 | 21.9 | 0.021 | CN(c1ncccc1CNc1nc(Nc2ccc3c(c2)CC(=O)N3)nc2[nH]cc(Cl)c12)S(C)(=O)=O
> 100 | 27.9 | 0.038 | CN(c1ncccc1CNc1nc(Nc2ccc(F)cc2)nc2[nH]cc(F)c12)S(C)(=O)=O
 |  | 0.206 | CN(c1ncccc1CNc1nc(Nc2ccc3c(c2)CC(=O)N3)nc2[nH]ncc12)S(C)(=O)=O
18.2 | 54.8 | 0.015 | COc1ccc(Nc2nc(NCc3cccnc3N(C)S(C)(=O)=O)c3c(F)c[nH]c3n2)cc1OC
> 100 | > 100 | 0.017 | COc1cc(Nc2nc(NCc3cccnc3N(C)S(C)(=O)=O)c3c(F)c[nH]c3n2)cc(OC)c1OC
24.1 | 73.2 | 0.022 | CN(c1ncccc1CNc1nc(Nc2ccc3c(c2)CC(=O)N3)nc2[nH]cc(F)c12)S(C)(=O)=O
1.06 | 18.7 | 0.014 | CNC(=O)c1ccccc1Nc1nc(Nc2cccc(CNC(C)=O)c2)nc2[nH]cc(F)c12
> 100 | > 100 | 12 | Cc1cc2c(NCc3cccnc3N(C)S(C)(=O)=O)nc(Nc3ccc4c(c3)CC(=O)N4)nc2[nH]1
